Patent US20260042867A1, “ANTIBODY REPURPOSING” (priority 2022, published 2026)
Where two headings read alike, the source gives them in different places.

Columns and labels:
Format in all cases: binding, SARS-COV-2
SRBD - omicron = target: SRBD - omicron
[1] = target: SARS-Cov2 SRBD and anti-alpha-Gal antibody (Severe acute respiratory syndrome coronavirus 2, UniProt P0DTC2)
[2] = test system: Omicron S1/S2 ECD and anti-alpha-Gal antibody

COC[C@H](NC(=O)[C@@H](CCCCN)NC(=O)[C@H]1c2ccccc2C(=O)N(CCCNC(=O)Cc2ccc(CNC(=O)[C@@H](NC(=O)[C@@H](CCCCN)NC(=O)[C@H]3c4ccccc4C(=O)N(CCCNC(=O)Cc4ccc(CNC(=O)[C@H](CC5CC5)NC(=O)[C@H]5c6ccccc6C(=O)N(CCCNC(=O)[C@@H](C)NC(=O)Cc6ccc(CNC(=O)[C@H](C)NC(=O)[C@@H](CCCCN)NC(=O)[C@H]7c8ccccc8C(=O)N(CCCNC(=O)Cc8ccc(CNC(=O)[C@H](C)NC(=O)CNC(=O)[C@H]9c%10ccccc%10C(=O)N(CCCNC(=O)Cc%10ccc(CNC(=O)[C@H](C)NC(=O)[C@@H](CCC(=O)O)NC(=O)[C@H]%11c%12ccccc%12C(=O)N(CCCNC(=O)Cc%12ccc(CNC(=O)[C@H](Cc%13ccc(F)cc%13)NC(=O)[C@H]%13c%14ccccc%14C(=O)N(CCCNC(=O)[C@@H](CCC(=O)O)NC(=O)Cc%14ccc(CNC(=O)[C@H](C)NC(=O)CNC(=O)[C@H]%15c%16ccccc%16C(=O)N(CCCN)[C@@H]%15c%15ccc(CCC(=O)O)cc%15)cc%14)[C@@H]%13c%13cccc(Oc%14ccccc%14)c%13)cc%12)[C@@H]%11c%11ccc(CCC(=O)O)cc%11)cc%10)[C@@H]9c9cccnc9)cc8)[C@@H]7c7ccc(CCC(=O)O)cc7)cc6)[C@@H]5c5cccc(Oc6ccccc6)c5)cc4)[C@@H]3c3ccccc3)C(C)C)cc2)[C@@H]1c1ccc(O)cc1)C(=O)NCc1ccc(CC(N)=O)cc1 [Technein 16838-89-7]
Kd (SRBD - omicron; BLI, SRBD - omicron, global 1:2 fitting): 7 nM

COC[C@H](NC(=O)[C@H]1c2ccccc2C(=O)N(CCCNC(=O)[C@@H](C)NC(=O)Cc2ccc(CNC(=O)[C@H](Cc3ccc(F)cc3)NC(=O)[C@H]3c4ccccc4C(=O)N(CCCNC(=O)CNC(=O)Cc4ccc(CNC(=O)[C@H](Cc5ccc(F)cc5)NC(=O)[C@H]5c6ccccc6C(=O)N(CCCNC(=O)[C@@H](CCC(=O)O)NC(=O)Cc6ccc(CNC(=O)[C@H](C)NC(=O)[C@H]7c8ccccc8C(=O)N(CCCNC(=O)[C@@H](C)N)[C@@H]7c7ccc(CCC(=O)O)cc7)cc6)[C@@H]5c5cccc(Oc6ccccc6)c5)cc4)[C@@H]3c3ccc(O)cc3)cc2)[C@@H]1c1ccc(O)cc1)C(=O)NCc1ccc(CC(=O)NCC(=O)NCCCN2C(=O)c3ccccc3[C@H](C(=O)N[C@@H](CC3CC3)C(=O)NCc3ccc(CC(=O)N[C@H](CCC(=O)O)C(=O)NCCCN4C(=O)c5ccccc5[C@H](C(=O)N[C@@H](C)C(=O)NCc5ccc(CC(=O)NCCCN6C(=O)c7ccccc7[C@H](C(=O)N[C@H](CCCCN)C(=O)N[C@H](C(=O)NCc7ccc(CC(=O)N[C@H](C)C(=O)NCCCN8C(=O)c9ccccc9[C@H](C(=O)N[C@@H](CC9CC9)C(=O)NCc9ccc(CC(N)=O)cc9)[C@H]8c8ccc(CCC(=O)O)cc8)cc7)C(C)C)[C@H]6c6ccccc6)cc5)[C@H]4c4cccnc4)cc3)[C@H]2c2cccnc2)cc1 [Technein 16838-89-8]
Kd (SRBD - omicron): 4 nM | antibody repurposing of alpha Gal antibodies (ELISA signal) [1]: significantly lower levels of antibody repurposing | antibody repurposing of alpha Gal antibodies (ELISA signal) [2]: significantly lower levels of antibody repurposing
